We go through 2 compounds from patent US10351553B2, “Potassium channel modulators” (Cadent Therapeutics, Inc., priority 2017, dated 2019).

The nature of data set [1]: Brain concentration by LC-MS from brains harvested after tremor recording. The data set is classed as in vivo. As to conditions: Sprague Dawley, rat, oral, 30 mg/Kg. Here is the method:
(§1) The extent to which compounds modulate SK2 channels in vivo is expressed as % SK2 SC100, which is the ratio of the concentration of the drug free in the brain to the measured potency of the compound on the SK2 channel. It is calculated as follows: CFB=CMB×BFF, where CMB is the concentration of compound measured by liquid chromatography mass spectrometry from brains harvested immediately following tremor recording (Table 1, “Measured Brain Concentration”). CFB is the amount of free compound not complexed with protein and therefore free to interact with the SK2 channel (Table 1, “Calculated Free Brain Concentration”). BFF is average free fraction of compound as measured by equilibrium dialysis in separate experiments (1 uM test concentration incubated in 10% rat brain tissue homogenate for 5 hours at 37° C.) (Table 1, “Brain Free Fraction”). Free drug in brain available to interact with SK2 channels (CFB) is arrived at by multiplying the measured total brain level (CMB) by the average free fraction (BFF).
The amount of free compound is then expressed in terms of its potency against the SK2 channel as follows: % SK2 SC100=CFB/SK2 SC100×100, where SK2 SC100 (Table 1, “SK2 SC100”) is the measured value of potency of the compound on SK2 channels and % SK2 SC100 (Table 1, “% SK2 SC100”) is the free brain concentration (CFB) normalized to SK2 SC100.

For a further data set, the system named is harmaline induced tremor. The data set can be described thus: Harmaline induced tremor, tremor events by forepaw transmitter band. The format is in vivo, rat. As for the experimental part:
Immediately following harmaline injection, animals were placed in the tremor quantification apparatus and tremor events were quantified for 60 minutes. A tremor event signal was generated when a small metal transmitter band fitted to the right forepaw of the animal moved within the electromagnetic field generated by a loop antenna within the testing apparatus. Outputs from the amplifier were digitized at a sampling rate of 1,000 Hz and the signal was processed and analyzed using LabView software (National Instruments). To minimize signal from ambulatory and grooming behavior, the signal was filtered with a 128-ms unweighted moving average filter, and events with amplitudes>0.5 V and lasting>300 ms in duration were counted as a tremor event. Data were analyzed in one-minute bins over the course of the test and presented as the sum of tremor events over the entire 60 minute test.

In the next data set the test system is Purkinje neurons. The data set can be described thus: Purkinje cell firing irregularity in ex vivo cerebellar slices from SCA2 58Q transgenic mice. The format is cell-based, mouse. As to conditions: bath application of 1 or 3 μM; slices from eleven-month old SCA2 58Q mice; P<0.05; FIG. 3. An excerpt: The difference in ISI CV between wild-type (N=8) and SCA2 58Q (N=11) mice is illustrated in FIG. 3 (P<0.005).

Data set [2] is described as follows: Metabolic stability in liver microsomes, monkey. The data set is classed as in vitro ADME. The note with it: % remaining at 1 hour; 1 μM. Here is the method:
Metabolic stability profiling of the compounds was performed in liver microsomes. In this assay, test compound is incubated with liver microsomes in the presence of NADPH for 2 time points at 37° C. At the end of incubation, reaction is quenched with acetonitrile containing internal standard and the parent compound remaining is determined by LC-MS/MS. Conditions used in the assay are summarized below. […], 37° C. • Test concentration: 1 μM in 0.02% DMSO at pH 7.4 (n=2) • NADPH concentration in assay: 1 mM • Liver microsome protein concentration in assay: 0.5 mg/ml • Analysis: LC-MS/MS • Data reported: % Parent Compound Remaining (% PCR) • Reference compounds for high and low clearance are included • Species tested: mouse, rat, dog, monkey, and human

Another data set deals with T1, CYP3A4 (Homo sapiens, UniProt P08684).
T1 construct: Matrix: Human Liver Microsome (Invitrogen, life technologies); tissue Invitrogen, life technologies; host or cells: human liver microsomes
The data set can be described thus: CYP inhibition in human liver microsome, CYP3A4 (Midazolam). The data set is classed as in vitro ADME. Here is the method:
Compounds described herein were tested for CYP inhibition across 5 isoforms (3A4, 2D6, 2C9, 2C19 & 1A2). In this assay, CYP isoform specific substrates are incubated with human liver microsome (HLM) in the presence of test compounds, and metabolite formation is determined. Percentage inhibition of metabolite formation at different concentrations of test compound is calculated and IC50 is determined. Conditions used in the assay are summarized below. Results are shown in Table 2. • Test drug (Inhibitor) Concentration: 8 different concentrations (100 μM to 0.005 μM) • Matrix: Human Liver Microsome (Invitrogen, life technologies) • Specific probe substrates will be used for the isoforms as given below: • CYP3A4: Midazolam • CYP2D6: Bufuralol • CYP2C9: Diclofenac • CYP2C19: Mephynitoin • CYP1A2: Phenacetin • Cofactors: NADPH (1 mM final in assay) • Sample Analysis: LC-MS/MS (metabolites) • Specific reference inhibitors included in all assays (Ketoconazole/Quinidine/Sulphaphenazole/Ticlopidine/Furafylline) • Buffer: Potassium Phosphate Buffer (100 mM) pH 7.4 • DMSO level in assay: 0.1% • Data analysis: % Inhibition over control
(In general: Liver microsomes are a subcellular fraction often used to study metabolism.)

A further data set has as its target T2, SK2 channels (Homo sapiens, UniProt Q9H2S1).
T2 construct: expressed in transfected cells; host or cells: HEK293
In words: Whole-cell patch-clamp of SK2 current in HEK293 cells expressing SK2 channels. The data set is classed as cell-based. As to conditions: for SK2 potency (SC100): Table 2, concentration that produces doubling of channel current, averages from later experiments. Here is the method:
The biological activity was determined as follows. The ionic current through small-conductance Ca^2+-activated K^+ channels (SK channels, subtype 2) was measured using the whole-cell configuration of the patch-clamp technique in a patch-clamp set-up using HEK293 tissue culture cells expressing SK2 channels as described in Hougaard et al., British Journal of Pharmacology 151, 655-665, May 8, 2007, the entire teachings of which are incorporated herein by reference. In one aspect, a compound is defined to be an SK Positive Allosteric Modulator (PAM) if the compound increases current in this assay, for example, if the SC100 value of the compound is less than or equal to 10 μM as determined by this assay. The SC100 value is defined to be the concentration of compound that increases the basal current by 100%.

For the next data set, the system named is harmaline-induced tremor. In words: Harmaline-induced whole body tremor, force-plate accelerometer (Tremor Monitor). The format is in vivo. Here is the method:
Whole body tremor was measured by a San Diego Instruments Tremor Monitor (San Diego, Calif., USA). […] Tremor was measured for 30 minutes following harmaline administration, and data were analyzed by fast Fourier transform and reported as a frequency power spectrum. Harmaline induced a significant increase in the power spectrum in a band of frequencies between 10 and 14 Hz. […] Data were further analyzed by calculating the percent Motion Power (% MP), defined as the power in the 9-13 Hz band divided by the total power across the spectrum (0-30 Hz) multiplied by 100.

A short description of data set [3]: Brain free fraction by equilibrium dialysis in rat brain tissue homogenate. The format is in vitro ADME. As to conditions: 10% rat brain tissue homogenate, Tables 2 and 3. As for the experimental part:
as §1
For orientation: In equilibrium dialysis free small molecules cross a membrane that holds back macromolecules.

Read-outs that look alike come from different tables or passages of the source.

T1 sequence (P08684 whole entry): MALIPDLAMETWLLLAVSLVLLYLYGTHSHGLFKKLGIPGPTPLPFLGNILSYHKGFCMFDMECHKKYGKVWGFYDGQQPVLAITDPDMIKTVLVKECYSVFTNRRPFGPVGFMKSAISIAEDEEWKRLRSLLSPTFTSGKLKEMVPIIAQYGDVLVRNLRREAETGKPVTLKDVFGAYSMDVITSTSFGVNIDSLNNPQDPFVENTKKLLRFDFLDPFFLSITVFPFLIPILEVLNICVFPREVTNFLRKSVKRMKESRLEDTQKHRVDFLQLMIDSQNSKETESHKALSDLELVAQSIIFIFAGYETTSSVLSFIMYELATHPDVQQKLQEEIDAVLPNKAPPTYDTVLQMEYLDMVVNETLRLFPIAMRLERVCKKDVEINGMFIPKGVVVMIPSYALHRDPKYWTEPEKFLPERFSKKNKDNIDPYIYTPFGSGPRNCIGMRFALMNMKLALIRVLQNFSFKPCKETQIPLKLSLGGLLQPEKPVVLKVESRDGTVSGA

Usually IC50 stands for the concentration that gives 50% inhibition. For orientation: fraction unbound means the share of the substance not bound to proteins or other matrix. In the case of `Cc1ccn(-c2nc(NC3CCC(F)(F)CC3)cc(N3CCOCC3)n2)n1` [Compound 1, N-(4,4-difluorocyclohexyl)-2-(3-methyl-1H-pyrazol-1-yl)-6-morpholinopyrimidin-4-amine], the concentration at 90 min was 80 nM in data set [1] (CFB=CMB×BFF, read-out: Calculated Free Brain Concentration) and 1300 nM in data set [1] (brains harvested immediately following tremor recording, minimally efficacious dose, read-out: Measured Brain Concentration). The “Effect on harmaline induced tremor (sum of tremor events over 60 minutes)” value with harmaline induced tremor (30 mg/Kg oral, 30 minutes prior to harmaline, male Sprague Dawley rats, FIG. 1) is “significant inhibition of tremors”. The “Minimally Efficacious Dose” value with harmaline induced tremor (harmaline induced tremor, oral administration) is 30 mg/kg. In the data set with Purkinje neurons, the “Effect on coefficient of variation of the interspike interval (ISI CV)” value was “partially reversed the increase in ISI CV”. Further, in data set [2], the “Liver microsome stability, Monkey” value stood at 46%. This compound returned an IC50 at CYP3A4 of more than 10 µM. At SK2 channels (Table 1, concentration that increases the basal current by 100%), the “Measured SK2 SC100” value turned out to be 0.5 µM. Besides, the “SK2 potency (SC100)” value at SK2 channels is 0.4 µM. Further, in the data set on harmaline-induced tremor (3 mg/kg P<0.01, 10 and 30 mg/kg P<0.05, orally, FIG. 2), the “Effect on percent Motion Power (% MP)” value was “significantly reduced harmaline-induced tremor”. For the same compound, the “Effect on harmaline-induced power spectrum, 10 to 14 Hz band” value with harmaline-induced tremor (3, 10, and 30 mg/kg orally 30 minutes prior to 5 mg/kg harmaline i.p.) is given as “significantly reduced tremor”. In data set [3], this compound registered a fraction unbound at 5 h, 1 uM of 0.061.

Regarding `Cc1cc(NC2CCCCC2)nc(-n2nc(C)cc2C)n1` [Comparator A, reference compound], in data set [2], the “Liver microsome stability, Monkey” value is given as 1%. For the same compound, the IC50 against CYP3A4 is more than 10 µM. Besides, at SK2 channels, the “SK2 potency (SC100)” value is 1.38 µM. In data set [3], this compound showed a fraction unbound at 5 h, 1 uM of 0.012.
